ChEMBL document CHEMBL1158687, “A dihydroflavonol glucoside from Commiphora africana that mediates DNA strand scission” (J Nat Prod, 2005)
Active and inactive are the calls of the source. The rule behind the calls is not given here.

Legend:
[1] = system: Escherichia coli; assay: Induction of strand scission in pBR322 DNA in presence of ferrous ion
[2] = system: Escherichia coli; assay: Induction of strand scission in pBR322 DNA assessed as conversion from supercoiled form to nicked circular form at 50 uM in presence of copper
[3] = system: Escherichia coli; assay: Induction of strand scission in pBR322 DNA assessed as formation of linear duplex and nicked form at 100 uM in presence of copper
[4] = system: Escherichia coli; assay: Induction of strand scission in pBR322 DNA in presence of copper

## CC(C)=CCc1c(O[C@@H]2O[C@H](CO)[C@@H](O)[C@H](O)[C@H]2O)cc(O)c2c1O[C@H](c1ccc(O)cc1)[C@@H](O)C2=O
[1]
  Activity: inactive
[2]
  Activity: 62%
[3]
  Activity: Active
[4]
  Activity: Dose-dependent effect
